24 compounds from patent publication US9394297B2, “Amides as pim inhibitors” (AMGEN INC., priority 2012, dated 2016) can be followed below.

The target of assay [1] is T1, Pim-2 (Homo sapiens (Human), UniProt Q9P1W9). Briefly: Pim enzyme assay (HTRF, 96-well), Pim-2. Format: biochemical. Particulars: full length recombinant Pim-2, biotinylated-BAD (S112) peptide, 10-point curve, 45 min RT, read-out: Pim-2 IC50 IP. The method, boiled down:
(§1)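 HTRF detection of biotinylated BAD (S112) phosphorylation by full-length recombinant His-tagged Pim-1 or Pim-2 in 60 mM Hepes pH 7.0, 0.05% BSA, 2 mM DTT at 22 °C: 2 h for Pim-1, 45 min for Pim-2. Stopped with EDTA; IC50 from 4-parameter logistic fit of percent of control.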
On the technique in general: In TR-FRET formats the signal depends on donor and acceptor labels being close together.

For assay [2], the target named is T2, Pim-1 (Homo sapiens (Human), UniProt P11309). The assay is described as follows: Pim-Mn enzyme assay (HTRF, 384-well), Pim-1. Format: biochemical. Particulars: Pim-1 enzyme 5 pM, ATP 1.5 μM, BAD (S112) 0.5 μM, HTRF, 22-point curve; read-out: Pim-1-Mn IC50 IP.
T2 sequence (P11309 whole entry): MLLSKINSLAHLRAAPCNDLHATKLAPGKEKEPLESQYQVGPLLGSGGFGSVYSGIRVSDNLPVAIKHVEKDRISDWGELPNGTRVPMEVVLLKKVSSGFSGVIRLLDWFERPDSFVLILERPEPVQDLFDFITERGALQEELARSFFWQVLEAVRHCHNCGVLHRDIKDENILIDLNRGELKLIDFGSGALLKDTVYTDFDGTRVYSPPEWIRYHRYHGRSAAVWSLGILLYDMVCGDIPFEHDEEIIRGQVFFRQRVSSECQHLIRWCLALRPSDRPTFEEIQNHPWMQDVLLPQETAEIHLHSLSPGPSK
Assay [3] concerns KMS-12-BM myeloma cell line. The assay is described as follows: Pim KMS-12 cell assay (phospho-BAD S112 / total BAD, MSD).
Assay [4] concerns the target T1, Pim-2. Briefly: Pim-Mn enzyme assay (HTRF, 384-well), Pim-2. Format: biochemical. Particulars: Pim-2 enzyme 0.5 pM, ATP 1.5 μM, BAD (S112) 0.5 μM, HTRF, 22-point curve; read-out: Pim-2-Mn IC50 IP.
Assay [5] concerns the target T2, Pim-1. The assay is described as follows: Pim enzyme assay (HTRF, 96-well), Pim-1. The class given is biochemical. Particulars: full length recombinant Pim-1, biotinylated-BAD (S112) peptide, 10-point curve, 2 h RT, read-out: Pim-1 IC50 IP. In a few lines: as §1
Where [6] appears, read: Homo sapiens, KMS-12-BM, read-out: KMS-12-BM IC50 IP, KMS-12-BM cells, phospho-BAD (S112) vs total BAD, 1 hour 50 min with compound.
The mark [7] stands for this setting: Homo sapiens, KMS-12-BM, read-out: KMS-12-BM IC50 IP.

Like-named read-outs stand apart in the source and are kept apart here.

Broadly, the IC50 is the concentration at which inhibition is half-maximal.

T1 sequence (Q9P1W9 whole entry): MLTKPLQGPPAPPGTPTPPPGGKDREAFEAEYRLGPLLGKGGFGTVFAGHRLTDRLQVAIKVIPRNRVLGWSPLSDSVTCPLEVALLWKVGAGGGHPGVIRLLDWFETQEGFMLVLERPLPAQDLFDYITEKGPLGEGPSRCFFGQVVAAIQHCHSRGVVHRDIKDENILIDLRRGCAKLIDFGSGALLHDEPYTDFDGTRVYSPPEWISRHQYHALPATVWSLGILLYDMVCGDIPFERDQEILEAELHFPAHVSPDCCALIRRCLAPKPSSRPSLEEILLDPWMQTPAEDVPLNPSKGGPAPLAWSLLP

With `Cc1nc2cccc(-c3cc4c([nH]3)CCNC4=O)c2nc1N[C@H]1CC[C@@H](N)C1` (single isomer, unassigned) [Example 142, 2-(3-((cis-3-aminocyclopentyl)amino)-2-methylquinoxalin-5-yl)-6,7-dihydro-1H-pyrrolo[3,2-c]pyridin-4(5H)-one], the IC50 was found to be 5.3 nM at Pim-2 [1]; 0.7 nM at Pim-1 [2]; 2260 nM in assay [3] (read-out: KMS-12-BM IC50 IP, KMS-12-BM cells, phospho-BAD (S112) vs total BAD, 1 hour 50 min with compound); 1.4 nM at Pim-2 [4]; 1.9 nM on Pim-1 [5].

For `O=C1NCCc2[nH]c(-c3cccc4ccc(Nc5ccccc5Cl)nc34)cc21` [Example 108, 2-(2-((2-chlorophenyl)amino)quinolin-8-yl)-6,7-dihydro-1H-pyrrolo[3,2-c]pyridin-4(5H)-one], the IC50 stood at 13.4 nM on Pim-2 [1], 6740 nM in assay [3] (setting [6]) and 1.5 nM on Pim-1 [5].

For `Nc1cccc(Nc2ccc3cccc(-c4cc5c([nH]4)CCNC5=O)c3n2)c1` [Example 110, 2-(2-((3-aminophenyl)amino)quinolin-8-yl)-6,7-dihydro-1H-pyrrolo[3,2-c]pyridin-4(5H)-one], the concentration for half-maximal inhibition (IC50) is 2.9 nM at Pim-2 [1], 1130 nM in assay [3] (setting [6]) and 1.1 nM on Pim-1 [5].

As for `O=C1NCCc2[nH]c(-c3cccc4ccc(N[C@H]5CCCNC5)nc34)cc21` [Example 123, (S)-2-(2-(piperidin-3-ylamino)quinolin-8-yl)-6,7-dihydro-1H-pyrrolo[3,2-c]pyridin-4(5H)-one], the results for the IC50 (on Pim-2 [1]; in assay [3] (setting [6]); at Pim-1 [5]) were 12 nM, 2510 nM and 1 nM, respectively.

Take `Cc1nc2cccc(-c3cc4c([nH]3)CCNC4=O)c2nc1NC1CCOCC1` [Example 127, 2-(2-methyl-3-((tetrahydro-2H-pyran-4-yl)amino)quinoxalin-5-yl)-6,7-dihydro-1H-pyrrolo[3,2-c]pyridin-4(5H)-one]: the IC50 amounted to 12.6 nM at Pim-2 [1], 427 nM in assay [3] (setting [6]) and 17.1 nM on Pim-1 [5].

Consider `Cc1nc2cccc(-c3cc4c([nH]3)CCNC4=O)c2nc1NC1CCCC1` [Example 130, 2-(3-(cyclopentylamino)-2-methylquinoxalin-5-yl)-6,7-dihydro-1H-pyrrolo[3,2-c]pyridin-4(5H)-one], for which the IC50 at Pim-2 [1] is 5.5 nM; in assay [3] (setting [6]) it was 371 nM; on Pim-1 [5], 5.8 nM.

In the case of `Cc1nc2cccc(-c3cc4c([nH]3)CCNC4=O)c2nc1NC1CCCCC1` [Example 132, 2-(3-(cyclohexylamino)-2-methylquinoxalin-5-yl)-6,7-dihydro-1H-pyrrolo[3,2-c]pyridin-4(5H)-one], the half-maximal inhibitory concentration (IC50) is 4.9 nM on Pim-2 [1], 143 nM in assay [3] (setting [7]) and 5.3 nM on Pim-1 [5].

In the case of `C=C(C)CNc1nc2c(-c3cc4c([nH]3)CCNC4=O)cccc2nc1C` [Example 135, 2-(2-methyl-3-((2-methylallyl)amino)quinoxalin-5-yl)-6,7-dihydro-1H-pyrrolo[3,2-c]pyridin-4(5H)-one], the IC50 on Pim-2 [1] is 4.7 nM; in assay [3] (setting [6]), 217 nM; on Pim-1 [5], 7.6 nM.

`O=C1NCCn2cc(-c3cccc4ccc(Nc5ccccc5)nc34)cc21` [Example 165, 7-(2-(phenylamino)quinolin-8-yl)-3,4-dihydropyrrolo[1,2-a]pyrazin-1(2H)-one]: the IC50 is 17.9 nM at Pim-2 [1], 3850 nM in assay [3] (setting [6]) and 6.7 nM at Pim-1 [5].

Consider `O=C1NCCn2cc(-c3cccc4ccc(Nc5cccnc5)nc34)cc21` [Example 166, 7-(2-(pyridin-3-ylamino)quinolin-8-yl)-3,4-dihydropyrrolo[1,2-a]pyrazin-1(2H)-one], for which the IC50 on Pim-2 [1] amounted to 2.2 nM; in assay [3] (setting [6]), 4310 nM; on Pim-1 [5], 1.1 nM.

`O=C1NCCc2[nH]c(-c3cccc4ccc(Oc5c(F)cccc5F)nc34)cc21` [Example 176, 2-(2-(2,6-difluorophenoxy)quinolin-8-yl)-6,7-dihydro-1H-pyrrolo[3,2-c]pyridin-4(5H)-one]: the figures for the IC50 (at Pim-2 [1]; in assay [3] (setting [6]); at Pim-1 [5]) were 4.7 nM, 3580 nM and 2.6 nM, respectively.

For the compound `O=C1NCCc2[nH]c(-c3cccc4ncc(Oc5ccccc5)nc34)cc21` [Example 177, 2-(3-phenoxyquinoxalin-5-yl)-6,7-dihydro-1H-pyrrolo[3,2-c]pyridin-4(5H)-one], the 50% inhibitory concentration (IC50) on Pim-2 [1] was determined as 18.4 nM; in assay [3] (setting [6]), 4660 nM; at Pim-1 [5], 12.4 nM.

With `O=C1NCCc2[nH]c(-c3cccc4ncc(Nc5ccccc5)nc34)cc21` [Example 180, 2-(3-(phenylamino)quinoxalin-5-yl)-6,7-dihydro-1H-pyrrolo[3,2-c]pyridin-4(5H)-one], the IC50 on Pim-2 [1] came out at 2.8 nM; in assay [3] (setting [6]), 390 nM; on Pim-1 [5], 1.9 nM.

With `Cc1nc2cccc(-c3cc4c([nH]3)CCNC4=O)c2nc1Nc1ccccc1` [Example 183, 2-(2-methyl-3-(phenylamino)quinoxalin-5-yl)-6,7-dihydro-1H-pyrrolo[3,2-c]pyridin-4(5H)-one], the concentration for half-maximal inhibition (IC50) at Pim-2 [1] was 1.6 nM; in assay [3] (setting [6]) it was 165 nM; on Pim-1 [5] it was 1.5 nM.

For the compound `CCN(c1ccccc1)c1cnc2cccc(-c3cc4c([nH]3)CCNC4=O)c2n1` [Example 186, 2-(3-(ethyl(phenyl)amino)quinoxalin-5-yl)-6,7-dihydro-1H-pyrrolo[3,2-c]pyridin-4(5H)-one], the values for the half-inhibitory concentration (IC50) (on Pim-2 [1]; in assay [3] (setting [6]); at Pim-1 [5]) were 4.3 nM, 1490 nM and 2.2 nM, respectively.

For `CN(c1ccccc1)c1cnc2cccc(-c3cc4c([nH]3)CCNC4=O)c2n1` [Example 188, 2-(3-(methyl(phenyl)amino)quinoxalin-5-yl)-6,7-dihydro-1H-pyrrolo[3,2-c]pyridin-4(5H)-one], the IC50 on Pim-2 [1] worked out at 4.4 nM; in assay [3] (setting [7]), 1010 nM; at Pim-1 [5] it was 2.8 nM.

Turning to `Cc1nc2cccc(-c3cc4c([nH]3)CCNC4=O)c2nc1Nc1ccccn1` [Example 190, 2-(2-methyl-3-(pyridin-2-ylamino)quinoxalin-5-yl)-6,7-dihydro-1H-pyrrolo[3,2-c]pyridin-4(5H)-one], the IC50 at Pim-2 [1] was determined as 17.6 nM; in assay [3] (setting [6]), 966 nM; on Pim-1 [5], 36.2 nM.

With `Cc1nc2cccc(-c3cc4c([nH]3)CCNC4=O)c2nc1NC(C)C` [Example 192, 2-(3-(isopropylamino)-2-methylquinoxalin-5-yl)-6,7-dihydro-1H-pyrrolo[3,2-c]pyridin-4(5H)-one], the IC50 was found to be 4.9 nM at Pim-2 [1], 270 nM in assay [3] (setting [7]) and 7.5 nM at Pim-1 [5].

`Cc1nc2cccc(-c3cc4c([nH]3)CCNC4=O)c2nc1NC(C)(C)C` [Example 193, 2-(3-(tert-butylamino)-2-methylquinoxalin-5-yl)-6,7-dihydro-1H-pyrrolo[3,2-c]pyridin-4(5H)-one]: the IC50 was found to be 1.3 nM at Pim-2 [1], 76.2 nM in assay [3] (setting [6]) and 1.1 nM at Pim-1 [5].

Consider `Cc1nc2cccc(-c3cc4c([nH]3)CCNC4=O)c2nc1NC1CC1` [Example 194, 2-(3-(cyclopropylamino)-2-methylquinoxalin-5-yl)-6,7-dihydro-1H-pyrrolo[3,2-c]pyridin-4(5H)-one], for which the values for the IC50 (on Pim-2 [1]; in assay [3] (setting [6]); at Pim-1 [5]) were 2 nM, 62.8 nM and 3.7 nM, respectively.

As for `Cc1nc2cccc(-c3cc4c([nH]3)CCNC4=O)c2nc1NC1COC1` [Example 196, 2-(2-methyl-3-(oxetan-3-ylamino)quinoxalin-5-yl)-6,7-dihydro-1H-pyrrolo[3,2-c]pyridin-4(5H)-one], the values for the half-inhibitory concentration (IC50) (at Pim-2 [1]; in assay [3] (setting [6]); on Pim-1 [5]) were 11.4 nM, 585 nM and 23.8 nM, respectively.

As for `Cc1nc2cccc(-c3cc4c([nH]3)CCNC4=O)c2nc1NC1(C)COC1` [Example 197, 2-(2-methyl-3-((3-methyloxetan-3-yl)amino)quinoxalin-5-yl)-6,7-dihydro-1H-pyrrolo[3,2-c]pyridin-4(5H)-one], the IC50 at Pim-2 [1] was found to be 5.7 nM; in assay [3] (setting [6]), 511 nM; at Pim-1 [5], 7.2 nM.

For `O=C1NCCc2[nH]c(-c3c(F)ccc4ccc(Nc5ccccc5)nc34)cc21` [Example 227, 2-(7-fluoro-2-(phenylamino)quinolin-8-yl)-6,7-dihydro-1H-pyrrolo[3,2-c]pyridin-4(5H)-one], the IC50 on Pim-2 [1] is 3.9 nM; in assay [3] (setting [6]), 539 nM; on Pim-1 [5], 0.9 nM.

`O=C1NCCc2[nH]c(-c3c(F)ccc4ccc(Nc5cccnc5)nc34)cc21` [Example 228, 2-(7-fluoro-2-(pyridin-3-ylamino)quinolin-8-yl)-6,7-dihydro-1H-pyrrolo[3,2-c]pyridin-4(5H)-one]: the IC50 at Pim-2 [1] came to 0.9 nM; in assay [3] (setting [6]), 1610 nM; at Pim-1 [5] it was 3 nM.
